The results in this text go back to PubChem BioAssay AID330 (DTP/NCI, 2004).

Several values for one entry are separate records, joined by “and”; a condition that tells them apart may be missing. Equal values may be shown once. Inconclusive results and toxic doses are left out.

In the assay the test system is P388 leukemia ip, CD2F1 mice, survival T/C. Description: NCI In Vivo Anticancer Drug Screen. Data for tumor model P388 Leukemia (intraperitoneal) in CD2F1 (CDF1) mice. As to conditions: endpoint: median survival time, higher = longer survival. An outline of the steps: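 Mice carrying the transplanted tumor received test compound or vehicle. Survival was recorded in each group, and the value is the treated-group measurement divided by that of the vehicle-treated control group.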

Where [1] appears, read: dose: 100.0 mg/kg/injection, schedule: Q01DX001 (ip), vehicle: saline with Tween-80.
The mark [2] stands for this setting: dose: 200.0 mg/kg/injection, schedule: Q01DX001 (ip), vehicle: saline with Tween-80.
Setting [3] is: dose: 400.0 mg/kg/injection, schedule: Q01DX001 (ip), vehicle: saline with Tween-80.
Setting [4] is: dose: 50.0 mg/kg/injection, schedule: Q01DX005 (ip), vehicle: Klucel (hydroxypropylcellulose) (HPC).
[5] abbreviates: dose: 100.0 mg/kg/injection, schedule: Q01DX005 (ip), vehicle: Klucel (hydroxypropylcellulose) (HPC).
Where [6] appears, read: dose: 200.0 mg/kg/injection, schedule: Q01DX005 (ip), vehicle: Klucel (hydroxypropylcellulose) (HPC).
The mark [7] stands for this setting: dose: 60.0 mg/kg/injection, schedule: Q01DX005 (ip), vehicle: saline with Tween-80.
[8] abbreviates: dose: 120.0 mg/kg/injection, schedule: Q01DX005 (ip), vehicle: saline with Tween-80.
Setting [9] is: dose: 50.0 mg/kg/injection, schedule: Q01DX005 (ip), vehicle: saline with Tween-80.
Setting [10] is: dose: 100.0 mg/kg/injection, schedule: Q01DX005 (ip), vehicle: saline with Tween-80.
Where [11] appears, read: dose: 200.0 mg/kg/injection, schedule: Q01DX005 (ip), vehicle: saline with Tween-80.
[12] abbreviates: dose: 50.0 mg/kg/injection, schedule: Q01DX005 (ip), vehicle: saline.
[13] abbreviates: dose: 100.0 mg/kg/injection, schedule: Q01DX005 (ip), vehicle: saline.
The mark [14] stands for this setting: dose: 200.0 mg/kg/injection, schedule: Q01DX005 (ip), vehicle: saline.

As to `Cc1ccc2nc(CN(CCN(Cc3nc4ccc(C)cc4[nH]3)Cc3nc4ccc(C)cc4[nH]3)Cc3nc4ccc(C)cc4[nH]3)[nH]c2c1`, the T/C (dose: 0.38 mg/kg/injection, schedule: Q01DX005 (ip), vehicle: saline with Tween-80) was 94 % of control; the T/C (dose: 0.75 mg/kg/injection, schedule: Q01DX005 (ip), vehicle: saline with Tween-80) is 97 % of control; the T/C (dose: 1.5 mg/kg/injection, schedule: Q01DX005 (ip), vehicle: saline with Tween-80) is 109 % of control; the T/C (dose: 3.0 mg/kg/injection, schedule: Q01DX005 (ip), vehicle: saline with Tween-80) was 106 % of control; the T/C (dose: 3.12 mg/kg/injection, schedule: Q01DX005 (ip), vehicle: saline with Tween-80) was 113 % of control.

Turning to `CCOC(=O)/C(=C\c1c(OC(C)=O)cn2c(C)cccc12)C(C)=O`, the T/C was 98 % of control under setting [1], 94 % of control under setting [2] and 94 % of control under setting [3].

`CN(CCS(=O)(=O)O)/N=C/c1ccc2c(c1)OCO2`: the T/C by setting is: (dose: 100.0 mg/kg/injection, schedule: Q04DX003 (ip), vehicle: Klucel (hydroxypropylcellulose) (HPC)) 103 % of control; (dose: 200.0 mg/kg/injection, schedule: Q04DX003 (ip), vehicle: Klucel (hydroxypropylcellulose) (HPC)) 100 % of control; (dose: 400.0 mg/kg/injection, schedule: Q04DX003 (ip), vehicle: Klucel (hydroxypropylcellulose) (HPC)) 100 % of control.

As to `O=C(CBr)NC1OC(CO)C(O)C(O)C1O` (stereo not given), the T/C reads like this: (dose: 2.5 mg/kg/injection, schedule: Q01DX009 (ip), vehicle: saline) 99 % of control; (dose: 5.0 mg/kg/injection, schedule: Q01DX009 (ip), vehicle: saline) 112 % of control; (dose: 10.0 mg/kg/injection, schedule: Q01DX009 (ip), vehicle: saline) 108 % of control.

Turning to `BrC1=CC(Br)=C2N=C(C(Br)(Br)Br)N=C3N=C(C(Br)(Br)Br)N=C1N32`, the T/C (dose: 15.0 mg/kg/injection, schedule: Q01DX005 (ip), vehicle: Klucel + Tween-80) is 106 % of control; the T/C (dose: 30.0 mg/kg/injection, schedule: Q01DX005 (ip), vehicle: Klucel + Tween-80) was 109 % of control; the T/C (dose: 60.0 mg/kg/injection, schedule: Q01DX005 (ip), vehicle: Klucel + Tween-80) is 103 % of control and 110 % of control.

On to `COc1ccc(OC)c(NC=O)c1`, for which the T/C is 98 % of control and 86 % of control (dose: 12.5 mg/kg/injection, schedule: Q01DX009 (ip), vehicle: saline with Tween-80); 98 % of control and 93 % of control and 97 % of control (dose: 25.0 mg/kg/injection, schedule: Q01DX009 (ip), vehicle: saline with Tween-80); 104 % of control and 97 % of control (dose: 50.0 mg/kg/injection, schedule: Q01DX009 (ip), vehicle: saline with Tween-80); 99 % of control and 100 % of control and 97 % of control (dose: 100.0 mg/kg/injection, schedule: Q01DX009 (ip), vehicle: saline with Tween-80).

In the case of `COc1cc2c(cc1OC)C1CC(=O)C(CCCCCCC3CN4CCc5cc(OC)c(OC)cc5C4CC3=O)CN1CC2` (stereo not given), the T/C reads like this: (dose: 50.0 mg/kg/injection, schedule: Q01DX009 (ip), vehicle: Klucel (hydroxypropylcellulose) (HPC)) 91 % of control; (dose: 100.0 mg/kg/injection, schedule: Q01DX009 (ip), vehicle: Klucel (hydroxypropylcellulose) (HPC)) 92 % of control; (dose: 200.0 mg/kg/injection, schedule: Q01DX009 (ip), vehicle: Klucel (hydroxypropylcellulose) (HPC)) 99 % of control.

As to `Nc1cc2c(c[n+](CCCCCCCCCBr)c3ccccc23)c2ccccc12`, the T/C (dose: 1.56 mg/kg/injection, schedule: Q04DX003 (ip), vehicle: other) was 155 % of control; the T/C (dose: 3.13 mg/kg/injection, schedule: Q04DX003 (ip), vehicle: other) is 155 % of control; the T/C (dose: 6.25 mg/kg/injection, schedule: Q04DX003 (ip), vehicle: other) is 150 % of control.

Turning to `COC(=O)NP1(=O)NCc2ccccc2CN1`, the T/C under setting [4] is 100 % of control, the T/C under setting [5] is 94 % of control and the T/C under setting [6] is 94 % of control.

As for `C=C1C2CCC3C4(C)CCCC(C)(C(=O)O)C4CCC3(C2)C1O` (stereo not given), the T/C is 100 % of control (dose: 15.0 mg/kg/injection, schedule: Q01DX005 (ip), vehicle: Klucel (hydroxypropylcellulose) (HPC)); 100 % of control (dose: 30.0 mg/kg/injection, schedule: Q01DX005 (ip), vehicle: Klucel (hydroxypropylcellulose) (HPC)); 99 % of control (dose: 60.0 mg/kg/injection, schedule: Q01DX005 (ip), vehicle: Klucel (hydroxypropylcellulose) (HPC)); 100 % of control (dose: 120.0 mg/kg/injection, schedule: Q01DX005 (ip), vehicle: Klucel (hydroxypropylcellulose) (HPC)).

`CC(C)(C)OOC(=O)c1ccc2ccccc2c1`: the T/C reads like this: under setting [7], 109 % of control; under setting [8], 97 % of control; (dose: 240.0 mg/kg/injection, schedule: Q01DX005 (ip), vehicle: saline with Tween-80) 93 % of control.

Turning to `C=CCOC(=O)C(NC(=O)OCCCC)NC(=O)OCCCC`, the T/C is, setting by setting: under setting [9], 103 % of control; under setting [10], 100 % of control; under setting [11], 98 % of control.

Take `CCCCCCOc1cc2c(cc1C(C)c1ccc(OC)cc1)OCO2` (stereo not given): the T/C was 103 % of control under setting [4], 109 % of control under setting [5] and 109 % of control under setting [6].

As for `CCOC(=O)C(NC(C)=O)(C(=O)OCC)C1CCCCC1=O` (stereo not given), the T/C is 108 % of control (dose: 60.0 mg/kg/injection, schedule: Q01DX005 (ip), vehicle: saline); 96 % of control (dose: 120.0 mg/kg/injection, schedule: Q01DX005 (ip), vehicle: saline); 99 % of control (dose: 240.0 mg/kg/injection, schedule: Q01DX005 (ip), vehicle: saline).

Consider `CSc1nc(SC)c2c(C)cn(COCCOC(=O)c3ccccc3)c2n1`, for which the T/C is, setting by setting: under setting [1], 104 % of control; under setting [2], 100 % of control; under setting [3], 91 % of control.

As for `O=C(c1ccccc1)N1CC1`, the T/C by setting is: (dose: 50.0 mg/kg/injection, schedule: Q01DX009 (ip), vehicle: saline + alcohol) 94 % of control; (dose: 100.0 mg/kg/injection, schedule: Q01DX009 (ip), vehicle: saline + alcohol) 97 % of control; (dose: 200.0 mg/kg/injection, schedule: Q01DX009 (ip), vehicle: saline + alcohol) 100 % of control; (dose: 400.0 mg/kg/injection, schedule: Q01DX009 (ip), vehicle: saline + alcohol) 116 % of control.

In the case of `CC1(O)CCC(O)CC1CC(=O)O` (stereo not given), the T/C is 107 % of control under setting [12], 100 % of control under setting [13] and 105 % of control under setting [14].

Consider `CCCCN(CCCC)CCNc1ccc(C)c2sc3ccccc3c(=O)c12`, for which the T/C by setting is: (dose: 12.5 mg/kg/injection, schedule: Q01DX009 (ip), vehicle: saline) 100 % of control; (dose: 25.0 mg/kg/injection, schedule: Q01DX009 (ip), vehicle: saline) 102 % of control; (dose: 50.0 mg/kg/injection, schedule: Q01DX009 (ip), vehicle: saline) 102 % of control; (dose: 100.0 mg/kg/injection, schedule: Q01DX009 (ip), vehicle: saline) 100 % of control.

`CCC[CH2][Sn]([CH2]CCC)([O]S(=O)c1ccccc1)[O]S(=O)c1ccccc1` (stereo not given): the T/C (dose: 3.12 mg/kg/injection, schedule: Q01DX001 (ip), vehicle: saline with Tween-80) is 103 % of control and the T/C (dose: 6.25 mg/kg/injection, schedule: Q01DX001 (ip), vehicle: saline with Tween-80) is 119 % of control.

Consider `COc1ccccc1NC(=O)CC(=O)N1N=C(C)C(N=Nc2cccc(C(=O)O)c2)C1=O` (stereo not given), for which the T/C was 98 % of control under setting [7] and 98 % of control under setting [8].

For `CN1CC2(C)OC3(CC2(C)N1C)N(C)N(C)CC3(C)O` (stereo not given), the T/C runs as follows: under setting [12], 101 % of control; under setting [13], 101 % of control; under setting [14], 101 % of control.

With `CC[Si](CC)(CC)OC(C#N)c1ccc2c(c1)OCO2` (stereo not given), the T/C runs as follows: under setting [9], 104 % of control; under setting [10], 104 % of control; under setting [11], 100 % of control.
